The first experiment deals with human APJ receptor (Homo sapiens (Human), UniProt P35414). Nature of the experiment: Intracellular cAMP accumulation assay (APJ hcAMP, HTRF). It is filed as cell-based. The settings on record: HEK293 cells stably expressing human APJ receptor; inhibition of forskolin-mediated cAMP production; read-out: Human APJ cAMP EC50 Potency range. Here is the method:
Intracellular cAMP Accumulation Assay
HEK293 cells stably expressing human APJ receptor were used to assess the activity of compounds. Cultured cells were detached and resuspended in the cAMP Homogeneous Time-Resolved Fluorescence (HTRF) assay buffer (Cisbio cat; #62AM4PEJ). The assay was performed in 384-well assay plates (Perkin-Elmer; cat #6008289) according to assay protocol provided by the manufacturer. Serial dilutions of a compound together with assay buffer containing […] and 2 μM forskolin were added to each well containing 5,000 cells and incubated for 30 minutes at room temperature. Subsequently, cAMP D2 reagent was added in the lysis buffer followed by the EuK antibody (Cisbio; cat #62AM4PEJ) and incubated for 60 min. The fluorescence emission ratio was measured using fluorometer. The intracellular cAMP concentrations (compound-stimulated inhibition of forskolin-mediated cAMP production) were calculated by extrapolation from a standard curve using known cAMP concentrations. The EC50 values were obtained by fitting the data to a sigmoidal concentration-response curve with variable slope.
(cAMP levels reflect the balance of adenylyl cyclase and phosphodiesterase activity.)
Sequence of human APJ receptor (P35414 whole entry): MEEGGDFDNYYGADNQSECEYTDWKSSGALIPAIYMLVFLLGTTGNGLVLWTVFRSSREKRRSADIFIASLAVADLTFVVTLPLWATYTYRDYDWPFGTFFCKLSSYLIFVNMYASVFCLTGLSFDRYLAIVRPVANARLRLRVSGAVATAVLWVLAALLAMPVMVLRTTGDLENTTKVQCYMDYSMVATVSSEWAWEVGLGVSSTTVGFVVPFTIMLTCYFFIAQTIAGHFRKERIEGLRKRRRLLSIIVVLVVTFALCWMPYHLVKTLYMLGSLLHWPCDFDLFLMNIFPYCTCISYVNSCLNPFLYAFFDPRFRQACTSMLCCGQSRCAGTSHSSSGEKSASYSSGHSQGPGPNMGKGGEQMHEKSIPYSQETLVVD
What is called EC50 is the concentration at which the effect is half-maximal. In the case of `CCCCc1[nH]c(=O)c(-c2nnc(Cc3csc(C)n3)o2)c(O)c1-c1cccc(CC)c1` [Example 137, 6-butyl-5-(3-ethylphenyl)-4-hydroxy-3-{5-[(2-methyl-1,3-thiazol-4-yl)methyl]-1,3,4-oxadiazol-2-yl}-1,2-dihydropyridin-2-one], the EC50 was 10 to 100 nM.

The experiment is the same for the next values; noted with them: HEK293 cells stably expressing human APJ receptor; inhibition of forskolin-mediated cAMP production; read-out: hAPJ cAMP EC50 (nM) Potency range.
For the compound `CCOCc1nc(O)c(-c2nnc(Cc3ccc(Cl)cn3)o2)c(O)c1-c1c(O)cccc1O` [Example 276, 3-{5-[(5-chloropyridin-2-yl)methyl]-1,3,4-oxadiazol-2-yl}-5-(2,6-dihydroxyphenyl)-6-(ethoxymethyl) pyridine-2,4-diol], the EC50 fell in the range of 10 to 100 nM.

On to `CCCCc1nc(O)c(-c2nnc(CC(=O)Nc3cccnc3)o2)c(O)c1-c1c(OC)cccc1OC` [Example 252, 2-{5-[6-butyl-5-(2,6-dimethoxyphenyl)-2,4-dihydroxy-pyridin-3-yl]-1,3,4-oxadiazol-2-yl}-N-(pyridin-3-yl)acetamide], for which the 50% effective concentration (EC50) lay in the range of 0.01 to 10 nM.

The same experiment, now with this note: HEK293 cells stably expressing human APJ receptor; inhibition of forskolin-mediated cAMP production; read-out: hAPJ cAMP EC50 Potency range.
In the case of `CCOCc1nc(O)c(-c2nnc(Cc3ccc(Cl)c(F)c3)o2)c(O)c1-c1c(OC)cccc1OC` [Example 122, 3-{5-[(4-chloro-3-fluorophenyl)methyl]-1,3,4-oxadiazol-2-yl}-5-(2,6-dimethoxyphenyl)-6-(ethoxymethyl) pyridine-2,4-diol], the EC50 lay within 0.01 to 10 nM. Still for that read-out and setting: the value for `CCCCc1nc(O)c(-c2nnc(CC(=O)N3CCNC(=O)C3)o2)c(O)c1-c1c(OC)cccc1OC` [Example 184, 4-(2-{5-[6-butyl-5-(2,6-dimethoxyphenyl)-2,4-dihydroxypyridin-3-yl]-1,3,4-oxadiazol-2-yl}acetyl) piperazin-2-one] was 0.01 to 10 nM. Still for that read-out and setting: the value for `CCCCc1nc(O)c(-c2nnc(Cc3cnn(-c4ccccc4)c3)o2)c(O)c1-c1c(OC)cccc1OC` [Example 78, 6-butyl-5-(2,6-dimethoxyphenyl)-3-{5-[(1-phenyl-1H-pyrazol-4-yl)methyl]-1,3,4-oxadiazol-2-yl}pyridine-2,4-diol] was 10 to 100 nM; that for `CCCCc1nc(O)c(-c2nnc(Cc3csc(C)n3)o2)c(O)c1-c1c(OC)cccc1OC` [Example 79, 6-butyl-5-(2,6-dimethoxyphenyl)-3-{5-[(2-methyl-1,3-thiazol-4-yl)methyl]-1,3,4-oxadiazol-2-yl}pyridine-2,4-diol] was 0.01 to 10 nM; that for `CCCCc1nc(O)c(-c2nnc(CC(=O)NC)o2)c(O)c1-c1c(OC)cccc1OC` [Example 179, 2-{5-[6-butyl-5-(2,6-dimethoxyphenyl)-2,4-dihydroxypyridin-3-yl]-1,3,4-oxadiazol-2-yl}-N-methylacetamide] was 0.01 to 10 nM. `CCCCc1nc(O)c(-c2nnc(Cc3ccc(Cl)c(Cl)c3)o2)c(O)c1-c1c(OC)cccc1OC` [Example 33, 6-butyl-3-{5-[(3,4-dichlorophenyl)methyl]-1,3,4-oxadiazol-2-yl}-5-(2,6-dimethoxyphenyl) pyridine-2,4-diol]: the concentration giving a half-maximal response (EC50) was in the range of 0.01 to 10 nM. On the same count and under the same terms, the value for `CCCCc1nc(O)c(-c2nnc(CNC(=O)c3cccc(Cl)c3)o2)c(O)c1-c1c(OC)cccc1OC` [Example 162, N-({5-[6-butyl-5-(2,6-dimethoxyphenyl)-2,4-dihydroxypyridin-3-yl]-1,3,4-oxadiazol-2-yl}methyl)-3-chlorobenzamide] was 0.01 to 10 nM.

`CCCCc1nc(O)c(-c2nnc(Cc3ccc(Cl)cc3)o2)c(O)c1-c1c(OC)cccc1OC` [Example 8, 6-butyl-3-{5-[(4-chlorophenyl)methyl]-1,3,4-oxadiazol-2-yl}-5-(2,6-dimethoxyphenyl) pyridine-2,4-diol]: the EC50 fell in the range of 0.01 to 10 nM.

For the compound `CCOCc1nc(O)c(-c2nnc(CN3CCCC3=O)o2)c(O)c1-c1c(OC)cc(F)cc1OC` [Example 215, 1-({5-[6-(ethoxymethyl)-5-(4-fluoro-2,6-dimethoxyphenyl)-2,4-dihydroxypyridin-3-yl]-1,3,4-oxadiazol-2-yl}methyl) pyrrolidin-2-one], the EC50 was 10 to 100 nM. As to `CCOCc1nc(O)c(-c2nnc(Cc3ccc(F)cc3)o2)c(O)c1-c1c(OC)cccc1OC` [Example 135, 5-(2,6-dimethoxyphenyl)-6-(ethoxymethyl)-3-{5-[(4-fluorophenyl)methyl]-1,3,4-oxadiazol-2-yl}pyridine-2,4-diol], the EC50 is 0.01 to 10 nM.

For `CCCCc1nc(O)c(-c2nnc(CC(=O)N3CCCC3)o2)c(O)c1-c1c(OC)cccc1OC` [Example 194, 2-{5-[6-butyl-5-(2,6-dimethoxyphenyl)-2,4-dihydroxypyridin-3-yl]-1,3,4-oxadiazol-2-yl}-1-(pyrrolidin-1-yl)ethan-1-one], the EC50 was in the range of 0.01 to 10 nM.

Consider `CCCCc1nc(O)c(-c2nnc(Cc3noc4ccccc34)o2)c(O)c1-c1c(C)cc(C)cc1C` [Example 225, 3-[5-(1,2-benzoxazol-3-ylmethyl)-1,3,4-oxadiazol-2-yl]-6-butyl-5-(2,4,6-trimethylphenyl) pyridine-2,4-diol], for which the EC50 lay within 10 to 100 nM. Still for that read-out and setting: the value for `CCCCc1nc(O)c(-c2nnc(Cc3ccc(F)c(F)c3)o2)c(O)c1-c1cccc(C(C)C)c1` [Example 145, 6-butyl-3-{5-[(3,4-difluorophenyl)methyl]-1,3,4-oxadiazol-2-yl}-5-[3-(propan-2-yl)phenyl]pyridine-2,4-diol] was 10 to 100 nM. Turning to `CCCCc1nc(O)c(-c2nnc(CC(=O)N3CCCCC3)o2)c(O)c1-c1c(OC)cccc1OC` [Example 195, 2-{5-[6-butyl-5-(2,6-dimethoxyphenyl)-2,4-dihydroxypyridin-3-yl]-1,3,4-oxadiazol-2-yl}-1-(piperidin-1-yl)ethan-1-one], the EC50 was in the range of 0.01 to 10 nM. Same read-out and setting: the value for `CCOCc1nc(O)c(-c2nnc(Cc3csc(C)n3)o2)c(O)c1-c1c(OC)cccc1OC` [Example 106, 5-(2,6-dimethoxyphenyl)-6-(ethoxymethyl)-3-{5-[(2-methyl-1,3-thiazol-4-yl)methyl]-1,3,4-oxadiazol-2-yl}pyridine-2,4-diol] was 0.01 to 10 nM; that for `CCCCc1nc(O)c(-c2nnc(Cc3cc(F)cc(C(F)(F)F)c3)o2)c(O)c1-c1c(OC)cccc1OC` [Example 57, 6-butyl-5-(2,6-dimethoxyphenyl)-3-(5-{[3-fluoro-5-(trifluoromethyl)phenyl]methyl}-1,3,4-oxadiazol-2-yl)pyridine-2,4-diol] was 10 to 100 nM. The same measure, in the same setting: the value for `CCCCc1nc(O)c(-c2nnc(CC(=O)Nc3nccs3)o2)c(O)c1-c1c(OC)cccc1OC` [Example 201, 2-{5-[6-butyl-5-(2,6-dimethoxyphenyl)-2,4-dihydroxypyridin-3-yl]-1,3,4-oxadiazol-2-yl}-N-(1,3-thiazol-2-yl)acetamide] was 0.01 to 10 nM; that for `CCOCc1nc(O)c(-c2nnc(Cc3noc4ccccc34)o2)c(O)c1-c1c(OC)cccc1OC` [Example 89, 3-[5-(1,2-benzoxazol-3-ylmethyl)-1,3,4-oxadiazol-2-yl]-5-(2,6-dimethoxyphenyl)-6-(ethoxymethyl) pyridine-2,4-diol] was 0.01 to 10 nM; that for `CCOCc1nc(O)c(-c2nnc(CN3CCCC3=O)o2)c(O)c1-c1c(OC)cccc1OC` [Example 112, 1-({5-[5-(2,6-dimethoxyphenyl)-6-(ethoxymethyl)-2,4-dihydroxypyridin-3-yl]-1,3,4-oxadiazol-2-yl}methyl) pyrrolidin-2-one] was 0.01 to 10 nM. For `CCCCc1nc(O)c(-c2nnc(CN3CCCCC3)o2)c(O)c1-c1c(OC)cccc1OC` [Example 100, 6-butyl-5-(2,6-dimethoxyphenyl)-3-[5-(piperidin-1-ylmethyl)-1,3,4-oxadiazol-2-yl]pyridine-2,4-diol], the EC50 was 10 to 100 nM. Same read-out and setting: the value for `CCCCc1nc(O)c(-c2nnc(Cc3nc(Cc4ccccc4)no3)o2)c(O)c1-c1c(OC)cccc1OC` [Example 108, 3-{5-[(3-benzyl-1,2,4-oxadiazol-5-yl)methyl]-1,3,4-oxadiazol-2-yl}-6-butyl-5-(2,6-dimethoxyphenyl) pyridine-2,4-diol] was 0.01 to 10 nM; that for `CCCCc1nc(O)c(-c2nnc(CNC(C)=O)o2)c(O)c1-c1c(OC)cccc1OC` [Example 175, N-({5-[6-butyl-5-(2,6-dimethoxyphenyl)-2,4-dihydroxypyridin-3-yl]-1,3,4-oxadiazol-2-yl}methyl) acetamide] was 0.01 to 10 nM. Still for that read-out and setting: the value for `CCCCc1nc(O)c(-c2nnc(CCc3ncc(-c4ccccc4)o3)o2)c(O)c1-c1c(OC)cccc1OC` [Example 28, 6-butyl-5-(2,6-dimethoxyphenyl)-3-{5-[2-(5-phenyl-1,3-oxazol-2-yl)ethyl]-1,3,4-oxadiazol-2-yl}pyridine-2,4-diol] was 10 to 100 nM.

Staying with this experiment, now noted: hAPJ cAMP EC50 (nM) Potency range, HEK293 cells stably expressing human APJ receptor; inhibition of forskolin-mediated cAMP production.
As for `CCCCc1nc(O)c(-c2nnc(Cc3ncc(Cl)cc3F)o2)c(O)c1-c1c(OC)cccc1OC` [Example 236, 6-butyl-3-{5-[(5-chloro-3-fluoropyridin-2-yl)methyl]-1,3,4-oxadiazol-2-yl}-5-(2,6-dimethoxyphenyl) pyridine-2,4-diol], the EC50 lay in the range of 10 to 100 nM.

Staying with this experiment, now noted: hAPJ cAMP EC50 Potency range (nM), HEK293 cells stably expressing human APJ receptor; inhibition of forskolin-mediated cAMP production.
For the compound `CCCCc1nc(O)c(-c2nnc(CN3CCOC3=O)o2)c(O)c1-c1c(OC)cccc1OC` [Example 116, 3-({5-[6-butyl-5-(2,6-dimethoxyphenyl)-2,4-dihydroxypyridin-3-yl]-1,3,4-oxadiazol-2-yl}methyl)-1,3-oxazolidin-2-one], the EC50 is 0.01 to 10 nM.
